ChEMBL document CHEMBL1201862, “PubChem BioAssay data set” (2004)
Active and inactive are the calls of the source. For most assays here, no stated cut-off is given here; in the data, actives have a measured EC50 and inactives only a lower limit.

Key:
[1] = biological target: T1, Heat shock factor protein 1 (Mus musculus, UniProt P38532); test: decrease of HSF1-responsive luciferase luminescence – cell-based, NIH3T3, dose retest, confirmation (AID 2382); type: functional;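 further: NIH3T3 fibroblasts with HSF1-driven luciferase reporter stressed by proteasome inhibitor MG132; luminescence from HSF1-driven luciferase expression after 8 hours of MG132 stress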
T1 sequence (P38532 whole entry): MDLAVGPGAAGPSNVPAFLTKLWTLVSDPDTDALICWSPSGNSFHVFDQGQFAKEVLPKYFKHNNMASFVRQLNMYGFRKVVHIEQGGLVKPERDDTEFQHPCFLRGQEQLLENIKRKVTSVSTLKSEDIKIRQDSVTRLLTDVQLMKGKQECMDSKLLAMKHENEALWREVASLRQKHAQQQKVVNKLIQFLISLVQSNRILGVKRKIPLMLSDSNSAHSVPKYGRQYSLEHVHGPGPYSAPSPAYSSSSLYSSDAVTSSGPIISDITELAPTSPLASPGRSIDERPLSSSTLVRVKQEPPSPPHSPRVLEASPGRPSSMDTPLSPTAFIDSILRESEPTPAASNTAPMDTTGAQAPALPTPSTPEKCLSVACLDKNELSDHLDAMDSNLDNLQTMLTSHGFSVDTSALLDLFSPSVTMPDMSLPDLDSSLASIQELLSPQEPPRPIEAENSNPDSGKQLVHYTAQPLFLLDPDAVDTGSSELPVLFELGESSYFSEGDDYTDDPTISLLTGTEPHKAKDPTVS

[2] = biological target: Cytochrome P450 3A4 (Homo sapiens, UniProt P08684);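 further: CYP3A4 tested as one member of a cytochrome P450 panel screen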
[3] = biological target: Cytochrome P450 2C9 (Homo sapiens, UniProt P11712)
[4] = tested on: Streptococcus sp. 'group A'; test: Streptococcus pyogenes SK(-)GAS viability under kanamycin – luminescence, BacTiterGlo, confirmation, counter-screen for streptokinase expression inhibitor project, dose response (AID 1900); type: functional, organism-based
[5] = tested on: Streptococcus; test: GAS UMAA2166 growth inhibition – luminescence, BacTiterGlo, counter-screen for streptokinase expression inhibitor project, dose response (AID 1915); type: functional, organism-based;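 further: potency for reduction of bacterial viability or growth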
[6] = luciferase reporter signal suppression in cells – H4 neuroglioma cells, luminescence, dose response (AID 1990); type: functional, cell-based
[7] = Luminescence Cell-Based Dose Response HTS to Identify Inhibitors of 5'UTR Stem-Loop Driven Prion Protein mRNA Translation in H4 Neuroglioblastoma Cells. [Related pubchem assays: 1827 (Project Summary), 1813 (Primary HTS)]; type: functional
[8] = alpha-synuclein stem-loop luciferase translation blockers – H4 neuroglioma cells, luminescence, confirmation (AID 1988); type: functional, cell-based
[9] = NIH3T3 cell viability loss – ATP luminescence, mouse fibroblasts, counter-screen, dose response (AID 2010); type: functional, cell-based;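 further: cells exposed to compound for about 90 hours before reading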
[10] = Trypanosoma cruzi growth suppression in host cells – NIH3T3 host cells, beta-gal luminescence, confirmation (AID 2044); type: functional, cell-based;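 further: intracellular parasites grown in NIH/3T3 mouse fibroblasts as host cells; luminescent beta-galactosidase reporter signal from transgenic T. cruzi replicating inside host cells; inhibitors lower the luminescence signal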
[11] = Luminescence Cell-Based Dose Retest to Confirm Inhibitors of Cancer Stem Cells. [Related pubchem assays (depositor defined):AID2717, AID2721]; type: functional; settings: Homo sapiens
[12] = tested on: INS1; test: INS-1E survival protection against cytokine death – cell-based, luminescence, retest, dose response (AID 449756); type: functional; settings: Rattus norvegicus;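 further: cell death triggered by IL-1 beta plus TNF-alpha plus IFN-gamma mixture; protective hits raise ATP signal compared with cytokine alone wells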

Cytochrome P450 3A4, sequence (P08684 whole entry): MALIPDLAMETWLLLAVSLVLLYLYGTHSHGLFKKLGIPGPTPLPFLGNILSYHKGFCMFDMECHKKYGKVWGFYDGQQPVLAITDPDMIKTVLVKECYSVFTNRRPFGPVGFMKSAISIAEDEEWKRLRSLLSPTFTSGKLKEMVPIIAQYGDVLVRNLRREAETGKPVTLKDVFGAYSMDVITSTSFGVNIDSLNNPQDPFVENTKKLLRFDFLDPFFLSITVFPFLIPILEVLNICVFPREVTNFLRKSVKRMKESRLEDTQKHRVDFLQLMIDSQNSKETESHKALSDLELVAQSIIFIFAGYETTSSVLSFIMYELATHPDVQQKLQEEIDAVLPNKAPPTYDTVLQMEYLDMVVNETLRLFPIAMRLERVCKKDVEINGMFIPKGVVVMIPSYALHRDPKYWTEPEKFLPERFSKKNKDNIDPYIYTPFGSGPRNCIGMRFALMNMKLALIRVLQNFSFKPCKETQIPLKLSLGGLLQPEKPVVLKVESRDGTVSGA
Cytochrome P450 2C9, sequence (P11712 whole entry): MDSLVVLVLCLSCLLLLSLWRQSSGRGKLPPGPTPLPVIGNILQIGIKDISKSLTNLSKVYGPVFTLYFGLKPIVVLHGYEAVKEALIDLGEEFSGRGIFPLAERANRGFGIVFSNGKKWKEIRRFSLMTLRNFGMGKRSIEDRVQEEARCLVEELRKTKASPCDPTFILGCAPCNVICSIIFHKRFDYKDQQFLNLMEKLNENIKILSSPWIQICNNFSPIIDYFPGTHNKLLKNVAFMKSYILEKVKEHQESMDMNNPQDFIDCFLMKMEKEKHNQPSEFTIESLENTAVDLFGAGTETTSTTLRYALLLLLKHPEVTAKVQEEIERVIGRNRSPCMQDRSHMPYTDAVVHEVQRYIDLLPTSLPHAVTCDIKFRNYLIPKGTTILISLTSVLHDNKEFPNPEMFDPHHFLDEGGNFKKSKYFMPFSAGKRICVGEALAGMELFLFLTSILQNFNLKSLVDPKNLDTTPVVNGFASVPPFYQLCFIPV

In the case of `Cc1ccc(S(=O)(=O)N2CCC(C(=O)N[C@@H](Cc3ccccc3)C(=O)O)CC2)cc1`, the EC50 [1] is reported as > 195 µM (not active).

For `O=C1C2CCCN2C(c2ccc(F)cc2)N1c1nccs1` (stereo not drawn), the AC50 [2] was 22.4 µM (inconclusive) and the AC50 [3] was 35.5 µM (inconclusive).

With `Cc1cc(C)n(-c2ccc(NC(=O)C3CCCCN3C(=O)c3ccoc3C)cc2)n1` (stereo not drawn) the EC50 [1] was > 195 µM (not active).

In the case of `COCCCN=C(S)NN=C(S)Nc1cccc(Cl)c1`, the EC50 [4] is reported as > 150 µM (not active) and the EC50 [5] is reported as > 150 µM (not active).

With `COc1ccc([C@@H]2[C@@H]3C(=O)N(C(C)(C)C)C(=O)[C@@H]3[C@]3(C)C(=O)N(c4cccc(F)c4)C(=O)N23)cc1` the EC50 [6] was > 120 µM (not active), the EC50 [7] was > 120 µM (not active) and the EC50 [8] was > 120 µM (not active).

In the case of `CCOC(=O)Cc1csc(NC(=O)c2c(O)c3ccccc3n(CC(C)C)c2=O)n1`, the EC50 [6] is reported as > 120 µM (not active), the EC50 [7] is reported as > 120 µM (not active) and the EC50 [8] is reported as 11.1 µM (active).

In the case of `O=C(NCCS(=O)(=O)N1CCN(c2ccc(F)cc2)CC1)c1ccc(Br)o1`, the EC50 [6] is reported as > 120 µM (not active), the EC50 [7] is reported as > 120 µM (not active) and the EC50 [8] is reported as > 120 µM (not active).

For `O=C(c1nn2c(C(F)(F)F)cc(-c3ccco3)nc2c1Br)N1CCCc2ccccc21`, the EC50 [6] was 8.31 µM (active), the EC50 [7] was 13.8 µM (active) and the EC50 [8] was 10.2 µM (active).

For `Cc1ccc(-n2nc(C)c3c(C)c(CCC(=O)NCC4CCCO4)c(=O)n(C)c32)cc1` (stereo not drawn), the EC50 [9] was > 60 µM (not active) and the EC50 [10] was 5.19 µM (active).

In the case of `CCOCC(=O)Nc1cc(C(=O)Nc2cccc(C)c2C)ccc1Cl`, the AC50 [2] is reported as 25.1 µM (inconclusive).

For `O=C(CSc1nc2ccccc2n1S(=O)(=O)c1ccccc1)N1CCCCC1`, the EC50 [1] was > 195 µM (not active).

For `COc1cccc2s/c(=N/C(=O)CS(=O)(=O)c3ccc(F)cc3)n(C)c12`, the EC50 [9] was > 60 µM (not active) and the EC50 [10] was 1.2 µM (active).

In the case of `CC/C(NNc1ccccc1)=C1/C(=O)NC(=O)N(c2ccccc2)C1=O`, the AC50 [11] is reported as 0.828 µM (active).

For `COc1ccc(N(CC(=O)NC2CCCCCCC2)S(=O)(=O)c2c(C)nn(C)c2C)cc1`, the EC50 [1] was > 195 µM (not active).

For `CC(=O)NC(=S)Nc1cccc(S(=O)(=O)NC2=NCCC2)c1`, the EC50 [1] was > 195 µM (not active).

For `Cn1c(-c2ccsc2)c(-c2cccs2)c2cc(Br)ccc21`, the AC50 [11] was 3.15 µM (active).

With `COC(=O)N/N=C/c1ccc(/C=N/NC(=O)OC)cc1` the EC50 [1] was > 195 µM (not active).

With `CN1CCN(NC(=O)c2ccc(S(=O)(=O)N3CCCCCC3)cc2)CC1` the EC50 [9] was > 60 µM (not active) and the EC50 [10] was 0.247 µM (active).

For `C/C(=N/Cc1cccc(Cl)c1)c1nc(-c2ccco2)oc1O`, the AC50 [11] was 1.08 µM (active).

In the case of `O=C(N1CCCCC1)N1CCN(S(=O)(=O)c2ccccc2)CC1`, the EC50 [1] is reported as 32.8 µM (active).

With `Cc1ccc(C)c(NC(=O)c2ccccc2NS(=O)(=O)c2cc([N+](=O)[O-])ccc2C)c1` the AC50 [12] was 3.76 µM (active) and the AC50 [11] was 1.19 µM (active).

With `Nc1nnc(SCCOc2cccc(Br)c2)s1` the AC50 [3] was 15.8 µM (inconclusive).

For `N#Cc1c(N2CCOCC2)nc(-c2ccco2)c2c1CCCC2`, the EC50 [6] was 21.5 µM (active), the EC50 [7] was 18.5 µM (active) and the EC50 [8] was > 120 µM (not active).

For `COc1cc(CNCCN2CCOCC2)ccc1OCc1ccccc1Cl`, the AC50 [3] was 7.94 µM (inconclusive).

With `CC(C)c1nc(N2CCOCC2)c(C#N)c2c1COC(C)(C)C2` the EC50 [6] was 33.6 µM (active), the EC50 [7] was > 120 µM (not active) and the EC50 [8] was > 120 µM (not active).

For `Cc1ccc(Cl)cc1N=C(S)N(Cc1cccnc1)Cc1ccccc1Cl`, the EC50 [9] was > 60 µM (not active) and the EC50 [10] was 0.554 µM (active).

In the case of `O=C(c1ccccc1)c1cc(F)c(N2CCOCC2)cc1Cl`, the AC50 [2] is reported as 17.8 µM (inconclusive).

For `COc1cccc(-c2cc(NCCc3c[nH]c4ccc(OC)cc34)ncn2)c1`, the AC50 [3] was 1.58 µM (inconclusive).

In the case of `CCCCN(C)CCNC(=O)c1cc2c(-c3ccccc3F)nn(C)c2s1`, the AC50 [12] is reported as > 260 µM (inactive) and the EC50 [1] is reported as > 195 µM (not active).

For `CCCn1c2c(c(O)c(C(=O)NCc3ccccc3)c1=O)CCCC2`, the AC50 [3] was 20 µM (inconclusive).

In the case of `CN(C)Cc1ccccc1-c1ccc2ncnc(N(C)Cc3ccco3)c2c1`, the AC50 [2] is reported as 15.8 µM (inconclusive).

With `O=C(C1=C[C@H](c2ccc(C(F)(F)F)cc2)C[C@H](OCCCCO)O1)N1CCN(Cc2ccc3c(c2)OCO3)CC1` the EC50 [1] was > 195 µM (not active).

With `COc1ccc(OC)c(NC(=O)CSc2nnc(-c3cccnc3)s2)c1` the AC50 [12] was 3.66 µM (active).

With `CN(Cc1ccccc1)CC(O)COc1ccc(CNCCc2ccncc2)cc1` (stereo not drawn) the EC50 [9] was > 60 µM (not active) and the EC50 [10] was 0.9 µM (active).

In the case of `COc1ccc2nc(NC(=O)c3cccc(-c4cc5ccccc5oc4=O)c3)sc2c1`, the AC50 [11] is reported as 6.73 µM (active).

With `Cc1cc(C)c2nc(C(F)(F)F)c(C#N)c(N)c2c1` the EC50 [1] was 3.15 µM (active).

With `C=C(C)COc1ccc2c(c1)CCC1C2CC[C@]2(C)C(=O)/C(=N/O)CC12` (stereo partly drawn) the AC50 [3] was 3.16 µM (inconclusive).

In the case of `Cn1c(NCc2cccnc2)nc2c1c(=O)n(Cc1ccccc1F)c(=O)n2C`, the EC50 [6] is reported as 18.5 µM (active), the EC50 [7] is reported as > 120 µM (not active) and the EC50 [8] is reported as > 120 µM (not active).

With `O=C(CCNC(=O)c1ccccc1Cl)Nc1nc(-c2ccc3ccccc3c2)cs1` the EC50 [9] was > 60 µM (not active) and the EC50 [10] was 2.02 µM (active).

For `O=C(CC12CC3CC(CC(C3)C1)C2)NC(=S)Nc1ccc(CN2CCOCC2)cc1`, the EC50 [9] was 9.26 µM (active) and the EC50 [10] was 1.51 µM (active).

With `Cn1ccnc1C1CCCCN1C(=O)c1cc(COc2ccc(F)cc2Cl)on1` (stereo not drawn) the EC50 [1] was > 195 µM (not active).

In the case of `CS(=O)(=O)n1nc(-c2cccnc2)nc1NCc1ccccc1`, the EC50 [6] is reported as > 120 µM (not active), the EC50 [7] is reported as > 120 µM (not active) and the EC50 [8] is reported as > 120 µM (not active).

With `c1ccc(Cn2c[n+](Cc3ccccc3)cn2)cc1` the EC50 [1] was > 195 µM (not active).

With `CCOc1ccc(-n2nc3ccc(NC(=O)c4ccc5c(c4)OCCO5)cc3n2)cc1` the EC50 [6] was > 120 µM (not active), the EC50 [7] was 72.6 µM (active) and the EC50 [8] was 12.7 µM (active).

For `CCn1c(C)c(C)c2cc(C(=O)N3CCN(c4cccc(C)c4C)CC3)ccc21`, the AC50 [11] was 4.18 µM (active).

In the case of `CC(C)C(NC(=O)C12CC3CC(CC(C3)C1)C2)C(=O)N/N=C/C1=C(N2CCOCC2)C(=C\c2cccc([N+](=O)[O-])c2)/CC1` (stereo not drawn), the EC50 [9] is reported as > 60 µM (not active) and the EC50 [10] is reported as 2.16 µM (active).

For `CCC(C)(C)n1nnnc1C(c1cc2ccc(OC)cc2nc1O)N1CCc2ccccc2C1` (stereo not drawn), the EC50 [9] was 4.98 µM (active) and the EC50 [10] was 1.91 µM (active).

In the case of `CCOc1ccc(-c2cc(CCCC(=O)N3CCN(c4ccc(OC)cc4)CC3)no2)cc1`, the EC50 [6] is reported as > 120 µM (not active), the EC50 [7] is reported as > 120 µM (not active) and the EC50 [8] is reported as 28.1 µM (active).

With `Clc1ccccc1N1CCN(Cc2c[nH]c3ccccc23)CC1` the EC50 [9] was > 60 µM (not active) and the EC50 [10] was 1.43 µM (active).

For `Cc1noc(C)c1C(=O)N1CCC(C(=O)c2ccccc2)CC1`, the EC50 [1] was > 195 µM (not active).

In the case of `CC(=O)c1cccc(/N=c2\scc(-c3ccc(S(=O)(=O)N4CCOCC4)cc3)n2CCO)c1`, the AC50 [12] is reported as 2.5 µM (active).

For `Cc1cccc(Nc2c([N+](=O)[O-])cc(C(=O)N3CC(=O)Nc4ccccc43)cc2[N+](=O)[O-])c1`, the EC50 [9] was > 60 µM (not active) and the EC50 [10] was 0.518 µM (active).

In the case of `CCCCn1c(C2CCCCC2)nc2cc3nc(O)c(C(C)C)nc3cc21`, the AC50 [11] is reported as 1.23 µM (active).

For `Cc1ccc(NCc2ccc(C)s2)cc1`, the EC50 [9] was > 60 µM (not active) and the EC50 [10] was 2.13 µM (active).

In the case of `CC/C(NNc1ccccc1)=C1/C(=O)NC(=O)N(c2ccc(OC)cc2)C1=O`, the AC50 [11] is reported as 0.769 µM (active).

In the case of `O=C(Nc1cccnc1Cl)c1cc([N+](=O)[O-])ccc1Cl`, the EC50 [9] is reported as > 60 µM (not active) and the EC50 [10] is reported as > 60 µM (not active).
